Results on 18 compounds are retold here after ChEMBL document CHEMBL5352496, “Design, synthesis and biological activity of hybrid antifungals derived from fluconazole and mebendazole” (Eur J Med Chem, 2023).

Structures are written as SMILES. Converted amounts (≈) assume the structure as drawn.

The subject of series [1] is Candida albicans. The experiment in a line: Antifungal activity against Candida albicans CMRC 19 incubated for 24 hrs by broth microdilution method. Type of series: functional. On the technique in general: Dilution methods test growth across graded concentrations, often in twofold steps.
The subject of series [2] is Candida albicans. As to the kind of experiment: Antifungal activity against Candida albicans FDC 151 incubated for 24 hrs by broth microdilution method. It counts as functional.
Series [3] has as its system Candida albicans. As to the kind of experiment: Antifungal activity against Candida albicans CMRC 192 incubated for 24 hrs by broth microdilution method. Type of series: functional.
The test system of series [4] is Nakaseomyces glabratus. The experiment in a line: Antifungal activity against Candida glabrata FDC 192 incubated for 24 hrs by broth microdilution method. It counts as functional.
Series [5] relates to Nakaseomyces glabratus. As to the kind of experiment: Antifungal activity against Candida glabrata CMRC 89 incubated for 24 hrs by broth microdilution method. Type of series: functional.
The test system of another series is Candida parapsilosis. The experiment in a line: Antifungal activity against Candida parapsilosis ATCC 22019 incubated for 24 hrs by broth microdilution method. Type of series: functional. The note with it: Lodderomyces parapsilosis.
The subject of a further series is Candida tropicalis. As to the kind of experiment: Antifungal activity against Candida tropicalis FDC 138 incubated for 24 hrs by broth microdilution method. It counts as functional.
The subject of another series is Cryptococcus neoformans. As to the kind of experiment: Antifungal activity against Cryptococcus neoformans IFRC 340 incubated for 24 hrs by broth microdilution method. Type of series: functional.
Another series concerns BEAS-2B. As to the kind of experiment: Cytotoxicity against human BEAS-2B cells assessed as cell viability at 25 ug/ml incubated for 48 hrs by MTT assay. It counts as toxicity, cell-based. To be noted: dose 25 µg/ml.
For a further series, the system named is HepG2. The experiment in a line: Cytotoxicity against human HepG2 cells assessed as cell viability at 25 ug/ml incubated for 48 hrs by MTT assay. Type of series: toxicity, cell-based. To be noted: hepg2, 48 h, dose 25 µg/ml.

The MIC is the least concentration at which growth counts as inhibited. In the case of `O=C(c1ccccc1)c1ccc2[nH]c(SCC(O)(Cn3cncn3)c3ccc(F)cc3F)nc2c1` (stereo not drawn), the MIC in the series on Candida albicans [1] amounted to 2 µg/mL (≈ 4.07 µM); in the series on Candida albicans [2] it was 2 µg/mL (≈ 4.07 µM); in the series on Candida albicans [3], 1 µg/mL (≈ 2.03 µM); with Nakaseomyces glabratus [4], 1 µg/mL (≈ 2.03 µM); against Nakaseomyces glabratus [5], 8 µg/mL (≈ 16.3 µM); in the series with Candida parapsilosis, 2 µg/mL (≈ 4.07 µM). In addition, the MIC against Candida tropicalis and in the series with Cryptococcus neoformans was 1 µg/mL (≈ 2.03 µM) each time.

On to `OC(CSc1nc2ccccc2s1)(Cn1cncn1)c1ccc(F)cc1` (stereo not drawn), for which the MIC in the series with Candida albicans [1] is 8 µg/mL (≈ 20.7 µM); with Candida albicans [2] it was more than 64 µg/mL; with Candida albicans [3] it was 16 µg/mL (≈ 41.4 µM); against Nakaseomyces glabratus [4], more than 64 µg/mL; against Nakaseomyces glabratus [5] it was 8 µg/mL (≈ 20.7 µM); in the series on Candida parapsilosis, 16 µg/mL (≈ 41.4 µM). The MIC with Candida tropicalis came out at 16 µg/mL (≈ 41.4 µM); in the series with Cryptococcus neoformans, 32 µg/mL (≈ 82.8 µM).

As to `OC(CSc1nc2ccccc2[nH]1)(Cn1cncn1)c1ccc(Cl)cc1Cl` (stereo not drawn), the MIC in the series with Candida albicans [1] turned out to be 8 µg/mL (≈ 19 µM); in the series on Candida albicans [2], 8 µg/mL (≈ 19 µM); in the series with Candida albicans [3] it was 8 µg/mL (≈ 19 µM); with Nakaseomyces glabratus [4] it was 16 µg/mL (≈ 38.1 µM); with Nakaseomyces glabratus [5], 16 µg/mL (≈ 38.1 µM); in the series on Candida parapsilosis, 8 µg/mL (≈ 19 µM). In addition, the MIC against Candida tropicalis and against Cryptococcus neoformans was 8 µg/mL (≈ 19 µM) throughout.

Take `OC(CSc1nc2ccccc2[nH]1)(Cn1cncn1)c1ccccc1` (stereo not drawn): the MIC is more than 64 µg/mL against Candida albicans [1]; more than 64 µg/mL against Candida albicans [2]; more than 64 µg/mL against Candida albicans [3]; more than 64 µg/mL in the series on Nakaseomyces glabratus [4]; 16 µg/mL (≈ 45.5 µM) with Nakaseomyces glabratus [5]; 32 µg/mL (≈ 91.1 µM) against Candida parapsilosis. For the same compound, the figures for the MIC against Candida tropicalis and with Cryptococcus neoformans were 32 µg/mL (≈ 91.1 µM) and more than 64 µg/mL, respectively.

Regarding `O=C(c1ccccc1)c1ccc2[nH]c(SCC(O)(Cn3cncn3)c3ccc(Cl)cc3)nc2c1` (stereo not drawn), the MIC against Candida albicans [1] was 0.5 µg/mL (≈ 1.02 µM); with Candida albicans [2] it was less than 0.063 µg/mL; in the series on Candida albicans [3] it was 0.5 µg/mL (≈ 1.02 µM); in the series on Nakaseomyces glabratus [4] it was 0.125 µg/mL (≈ 0.255 µM); in the series with Nakaseomyces glabratus [5] it was 1 µg/mL (≈ 2.04 µM); against Candida parapsilosis, less than 0.063 µg/mL. Further, the MIC against Candida tropicalis was less than 0.063 µg/mL; against Cryptococcus neoformans, 0.125 µg/mL (≈ 0.255 µM). Further, the Activity entry with BEAS-2B and in the series with HepG2 was “Toxic” throughout.

With `O=C(c1ccccc1)c1ccc2[nH]c(SCC(O)(Cn3cncn3)c3ccccc3)nc2c1` (stereo not drawn), the MIC against Candida albicans [1] was 4 µg/mL (≈ 8.78 µM); in the series on Candida albicans [2], 8 µg/mL (≈ 17.6 µM); against Candida albicans [3] it was 4 µg/mL (≈ 8.78 µM); in the series with Nakaseomyces glabratus [4], 4 µg/mL (≈ 8.78 µM); with Nakaseomyces glabratus [5], 8 µg/mL (≈ 17.6 µM); against Candida parapsilosis, 2 µg/mL (≈ 4.39 µM). Further, the MIC in the series with Candida tropicalis was determined as 8 µg/mL (≈ 17.6 µM); with Cryptococcus neoformans it was 2 µg/mL (≈ 4.39 µM).

As for `OC(CSc1nc2ccccc2s1)(Cn1cncn1)c1ccccc1` (stereo not drawn), the MIC against Candida albicans [1] worked out at 16 µg/mL (≈ 43.4 µM); against Candida albicans [2] it was 32 µg/mL (≈ 86.8 µM); against Candida albicans [3], 16 µg/mL (≈ 43.4 µM); against Nakaseomyces glabratus [4], 32 µg/mL (≈ 86.8 µM); in the series with Nakaseomyces glabratus [5], 32 µg/mL (≈ 86.8 µM); against Candida parapsilosis, 8 µg/mL (≈ 21.7 µM). In addition, the MIC in the series with Candida tropicalis and in the series on Cryptococcus neoformans was 16 µg/mL (≈ 43.4 µM) in each case.

`OC(CSc1nc2ccccc2[nH]1)(Cn1cncn1)c1ccc(Cl)cc1` (stereo not drawn): the minimum inhibitory concentration (MIC) against Candida albicans [1] is 8 µg/mL (≈ 20.7 µM); in the series with Candida albicans [2], 4 µg/mL (≈ 10.4 µM); in the series with Candida albicans [3], 8 µg/mL (≈ 20.7 µM); in the series with Nakaseomyces glabratus [4] it was 16 µg/mL (≈ 41.5 µM); with Nakaseomyces glabratus [5] it was 16 µg/mL (≈ 41.5 µM); in the series with Candida parapsilosis, 16 µg/mL (≈ 41.5 µM). In addition, the minimum inhibitory concentration (MIC) in the series with Candida tropicalis turned out to be 8 µg/mL (≈ 20.7 µM); with Cryptococcus neoformans, 16 µg/mL (≈ 41.5 µM).

On to `O=C(c1ccccc1)c1ccc2[nH]c(SCC(O)(Cn3cncn3)c3ccc(Cl)cc3Cl)nc2c1` (stereo not drawn), for which the MIC against Candida albicans [1] was found to be 0.5 µg/mL (≈ 0.953 µM); against Candida albicans [2], 0.063 µg/mL (≈ 0.12 µM); in the series on Candida albicans [3], 1 µg/mL (≈ 1.91 µM); against Nakaseomyces glabratus [4], 1 µg/mL (≈ 1.91 µM); against Nakaseomyces glabratus [5], 2 µg/mL (≈ 3.81 µM); with Candida parapsilosis, 2 µg/mL (≈ 3.81 µM). Also, the MIC in the series with Candida tropicalis was 0.125 µg/mL (≈ 0.238 µM); in the series on Cryptococcus neoformans it was 1 µg/mL (≈ 1.91 µM).

Take `O=C(c1ccccc1)c1ccc2[nH]c(SCC(O)(Cn3cncn3)c3ccc(F)cc3)nc2c1` (stereo not drawn): the MIC is 8 µg/mL (≈ 16.9 µM) in the series on Candida albicans [1]; 16 µg/mL (≈ 33.8 µM) against Candida albicans [2]; 8 µg/mL (≈ 16.9 µM) in the series on Candida albicans [3]; more than 64 µg/mL in the series on Nakaseomyces glabratus [4]; 16 µg/mL (≈ 33.8 µM) in the series with Nakaseomyces glabratus [5]; more than 64 µg/mL with Candida parapsilosis. In addition, the MIC in the series on Candida tropicalis came to 16 µg/mL (≈ 33.8 µM); with Cryptococcus neoformans it was 32 µg/mL (≈ 67.6 µM).

On to `OC(CSc1nc2ccccc2[nH]1)(Cn1cncn1)c1ccc(F)cc1F` (stereo not drawn), for which the minimum inhibitory concentration (MIC) with Candida albicans [1], against Candida albicans [2], with Candida albicans [3], against Nakaseomyces glabratus [4], in the series on Nakaseomyces glabratus [5] and against Candida parapsilosis was more than 64 µg/mL throughout. The MIC with Candida tropicalis and with Cryptococcus neoformans was 32 µg/mL (≈ 82.6 µM) throughout.

Take `OC(CSc1nc2ccccc2s1)(Cn1cncn1)c1ccc(F)cc1F` (stereo not drawn): the MIC with Candida albicans [1] was 16 µg/mL (≈ 39.6 µM); in the series with Candida albicans [2], more than 64 µg/mL; in the series with Candida albicans [3], 32 µg/mL (≈ 79.1 µM); against Nakaseomyces glabratus [4], more than 64 µg/mL; in the series with Nakaseomyces glabratus [5], 32 µg/mL (≈ 79.1 µM); in the series on Candida parapsilosis it was more than 64 µg/mL. In addition, the MIC with Candida tropicalis and against Cryptococcus neoformans was more than 64 µg/mL in each case.

Turning to `OC(CSc1nc2ccccc2s1)(Cn1cncn1)c1ccc(Cl)cc1` (stereo not drawn), the MIC was determined as 4 µg/mL (≈ 9.93 µM) in the series on Candida albicans [1]; 8 µg/mL (≈ 19.9 µM) against Candida albicans [2]; 4 µg/mL (≈ 9.93 µM) in the series with Candida albicans [3]; 8 µg/mL (≈ 19.9 µM) against Nakaseomyces glabratus [4]; 2 µg/mL (≈ 4.96 µM) against Nakaseomyces glabratus [5]; 8 µg/mL (≈ 19.9 µM) in the series on Candida parapsilosis. The MIC with Candida tropicalis and against Cryptococcus neoformans was 4 µg/mL (≈ 9.93 µM) each time.

On to `OC(CSc1nc2ccccc2s1)(Cn1cncn1)c1ccc(Cl)cc1Cl` (stereo not drawn), for which the MIC is 16 µg/mL (≈ 36.6 µM) in the series on Candida albicans [1]; 8 µg/mL (≈ 18.3 µM) in the series with Candida albicans [2]; 8 µg/mL (≈ 18.3 µM) in the series with Candida albicans [3]; 16 µg/mL (≈ 36.6 µM) against Nakaseomyces glabratus [4]; 16 µg/mL (≈ 36.6 µM) against Nakaseomyces glabratus [5]; 16 µg/mL (≈ 36.6 µM) with Candida parapsilosis. For the same compound, the MIC against Candida tropicalis is 8 µg/mL (≈ 18.3 µM); with Cryptococcus neoformans, 16 µg/mL (≈ 36.6 µM).

In the case of `OC(CSc1nc2ccccc2[nH]1)(Cn1cncn1)c1ccc(F)cc1` (stereo not drawn), the MIC with Candida albicans [1] was 0.125 µg/mL (≈ 0.338 µM); in the series on Candida albicans [2], 0.063 µg/mL (≈ 0.171 µM); with Candida albicans [3], 0.25 µg/mL (≈ 0.677 µM); in the series with Nakaseomyces glabratus [4], 0.125 µg/mL (≈ 0.338 µM); against Nakaseomyces glabratus [5], 1 µg/mL (≈ 2.71 µM); against Candida parapsilosis, less than 0.063 µg/mL. Moreover, the values for the MIC with Candida tropicalis and with Cryptococcus neoformans were less than 0.063 µg/mL and 0.125 µg/mL (≈ 0.338 µM), respectively. For the same compound, the Activity entry in the series with BEAS-2B and in the series on HepG2 was “Toxic” in each case.

For `O=[N+]([O-])c1ccc2[nH]c(SCC(O)(Cn3cncn3)c3ccc(F)cc3F)nc2c1` (stereo not drawn), the MIC was more than 64 µg/mL against Candida albicans [1]; 32 µg/mL (≈ 74 µM) in the series on Candida albicans [2]; more than 64 µg/mL against Candida albicans [3]; more than 64 µg/mL in the series with Nakaseomyces glabratus [4]; more than 64 µg/mL against Nakaseomyces glabratus [5]; more than 64 µg/mL against Candida parapsilosis. Moreover, the MIC with Candida tropicalis and with Cryptococcus neoformans was 32 µg/mL (≈ 74 µM) in each case.

For the compound `OC(c1ccccc1)c1ccc2[nH]c(SCC(O)(Cn3cncn3)c3ccccc3)nc2c1` (stereo not drawn), the MIC is 8 µg/mL (≈ 17.5 µM) in the series on Candida albicans [1]; 2 µg/mL (≈ 4.37 µM) in the series on Candida albicans [2]; 8 µg/mL (≈ 17.5 µM) with Candida albicans [3]; 8 µg/mL (≈ 17.5 µM) against Nakaseomyces glabratus [4]; 16 µg/mL (≈ 35 µM) against Nakaseomyces glabratus [5]; 4 µg/mL (≈ 8.74 µM) in the series on Candida parapsilosis. The MIC against Candida tropicalis came out at 2 µg/mL (≈ 4.37 µM); in the series with Cryptococcus neoformans, 8 µg/mL (≈ 17.5 µM).

In the case of `OC(Cn1cncn1)(Cn1cncn1)c1ccc(F)cc1F` [FLUCONAZOLE], the MIC was 0.25 µg/mL (≈ 0.816 µM) with Candida albicans [1]; 0.5 µg/mL (≈ 1.63 µM) in the series with Candida albicans [2]; 0.25 µg/mL (≈ 0.816 µM) with Candida albicans [3]; 1 µg/mL (≈ 3.27 µM) against Nakaseomyces glabratus [4]; 2 µg/mL (≈ 6.53 µM) with Nakaseomyces glabratus [5]; 0.5 µg/mL (≈ 1.63 µM) in the series with Candida parapsilosis. For the same compound, the MIC worked out at 0.25 µg/mL (≈ 0.816 µM) against Candida tropicalis and 0.5 µg/mL (≈ 1.63 µM) against Cryptococcus neoformans.
